Results on two compounds are retold here after patent US10704097B2, “Oxidative stress and cardiovascular disease events” (KATHOLIEKE UNIVERSITEIT LEUVEN, priority 2014, dated 2020).

One test deals with Cox1. The test is described as follows: Cox1 gene expression in aorta of DKO mice (qPCR). Particulars: 12 weeks treatment, relative RNA expression, mean ± SD.
The next test deals with Tfam. The test is described as follows: Tfam gene expression in aorta of DKO mice (qPCR). The settings on record: 12 weeks treatment, relative RNA expression, mean ± SD. (Real-time PCR tracks product formation cycle by cycle.)
Test [1] deals with DKO (LDL-R−/−×ob/ob) mice. Particulars: mean ± SD. The method, then: Breeding and genotyping of LDL-receptor deficient, leptin-deficient ob/ob, and DKO (LDL-R^−/−×ob/ob) mice, on the C57BL/6J background, were performed as previously described (72, 73).
To convert from mg/dL to mM, we divided glucose by 18 (=molecular weight), triglycerides by 89 and total cholesterol by 39. […] To determine glucose tolerance, glucose was measured in samples obtained by tail bleeding before and 15, 30, 60, 120 and 240 minutes after intraperitoneal administration of glucose (20% glucose solution; 2 g/kg). Plasma adiponectin […] were measured with specific mouse ELISA (R&D Systems).

A further test relates to Cox4i1. The test is described as follows: Cox4i1 gene expression in aorta of DKO mice (qPCR). The settings on record: 12 weeks treatment, relative RNA expression, mean ± SD.
[2] abbreviates: DKO mice at 24 weeks, 12 weeks treatment in diet.

Marks after values point to notes of the source that are not given here.

Method for Cox1: (§1) Total RNA from monocytes, macrophages and vascular tissues was extracted with TRIzol reagent (Invitrogen) and purified on (mi)RNeasy Mini Kit columns (Qiagen). […] First-strand cDNA was generated from total RNA with the SuperScript VILO cDNA synthesis kit (Invitrogen). qPCR analysis was performed on a 7500 Fast Real-Time PCR system using Fast SYBRGreen master mix, according to the supplier protocols (Applied Biosystems). […] For each RNA and microRNA sample, the expression levels of the RNAs as described herein were compared and normalized to reference housekeeping RNAs or microRNAs. […] We compared them with non-treated DKO at 24 weeks. […] Food and water were available ad libitum. […] All mice were sacrificed by Nembutal overdose at the age of 24 weeks (72, 73).
Method for Cox4i1: as §1
Method for Tfam: as §1

In the case of `CN(CCOc1ccc(CC2SC(=O)NC2=O)cc1)c1ccccn1` (centres unmarked) [Rosiglitazone, rosiglitazone], the “Cox1 gene expression in aorta” value in the test on Cox1 is 1.16 ± 0.40***^/$/£££. Also, the “Tfam gene expression in aorta” value in the test on Tfam was 1.57 ± 0.50***^/$/££. Besides, the Weight in test [1] (DKO mice at 24 weeks, 12 weeks treatment in diet (fenofibrate 50, rosiglitazone 10 mg/kg/day)) is 55 ± 3.6*^/$ g. Moreover, the Insulin in test [1] (DKO mice at 24 weeks, 12 weeks treatment in diet, fasting plasma) is given as 69 ± 42 ^ mU/L. Also, in test [1] (setting [2]), the “TG (triglyceride)” value was 192 ± 96 ^ mg/dl and the “Total C (cholesterol)” value is 700 ± 139*^/$$ mg/dl. Moreover, in test [1] (DKO mice at 24 weeks, 12 weeks treatment in diet, overnight fast), the Glucose is 88 ± 18*^/$/£ mg/dl. For the same compound, the “ADN (adiponectin)” value in test [1] (DKO mice at 24 weeks, 12 weeks treatment in diet, plasma) is reported as 16 ± 2.3***^/£££ μg/ml. Also, the HOMA-IR in test [1] (DKO mice, 12 weeks treatment, fasting insulin × fasting glucose / 22.5) is 16 ± 11 ^. For the same compound, in the test with Cox4i1, the “Cox4i1 gene expression in aorta” value is on record as 2.20 ± 0.64***^/$$/££.

Take `CC(C)OC(=O)C(C)(C)Oc1ccc(C(=O)c2ccc(Cl)cc2)cc1` [Fenofibrate]: in test [1] (DKO mice, 12 weeks treatment, intraperitoneal glucose tolerance test, glucose 2 g/kg), the “AUC of IPGTT” value is 75 ± 15 ×10^3.
